Data taken from ChEMBL document CHEMBL1201862, “PubChem BioAssay data set” (2004).
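In this assay, cells in 96-well plates receive the compound at five concentrations for 48 hours. Endpoints are linearly interpolated between the surrounding concentrations. The concentration for 50% growth inhibition is given as GI50.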 Active and inactive are the calls of the source. Cut-off read from the data, not from the text of the source: active = GI50 up to about 1.1 µM and inactive = higher.

What was measured:
Assay in all cases: NCI tumour cell line growth inhibition, 48 h
[1] = test system: A498
[2] = test system: ACHN
[3] = test system: BT-549
[4] = test system: EKVX
[5] = test system: HT-29
[6] = test system: Hs-578T
[7] = test system: LOX IMVI
[8] = test system: MCF7
[9] = test system: Malme-3M
[10] = test system: NCI-H23
[11] = test system: NCI-H522
[12] = test system: OVCAR-5
[13] = test system: OVCAR-8
[14] = test system: RPMI-8226
[15] = test system: SF-295
[16] = test system: SK-MEL-5
[17] = test system: SNB-19
[18] = test system: SR
[19] = test system: UACC-257
[20] = test system: UACC-62

Row | SMILES | GI50 [1] | GI50 [2] | GI50 [3] | GI50 [4] | GI50 [5] | GI50 [6] | GI50 [7] | GI50 [8] | GI50 [9] | GI50 [10] | GI50 [11] | GI50 [12] | GI50 [13] | GI50 [14] | GI50 [15] | GI50 [16] | GI50 [17] | GI50 [18] | GI50 [19] | GI50 [20]
1 | CN(C)CCCC1c2ccccc2Oc2ccc(C(F)(F)F)cc21 (stereo not given) | 10.8 µM (inactive) | 16.7 µM (inactive) | 14.2 µM (inactive) | 15.9 µM (inactive) | 5.28 µM (inactive) | 14.5 µM (inactive) | 15.6 µM (inactive) | 12.7 µM (inactive) | 2.79 µM (inactive) | 16 µM (inactive) | 14.3 µM (inactive) | 14.9 µM (inactive) | 16.8 µM (inactive) | 8.2 µM (inactive) | 16.5 µM (inactive) | 7.45 µM (inactive) | 16.7 µM (inactive) | 7.28 µM (inactive) | 11.6 µM (inactive) | 9.42 µM (inactive)
2 | CC1=CC(=O)c2c(O)cccc2C1=O [PLUMBAGIN] | 5.86 µM (inactive) | 1.6 µM (inactive) | 1.7 µM (inactive) | 1.6 µM (inactive) | 1.89 µM (inactive) | 2.91 µM (inactive) | 1.81 µM (inactive) | 1.79 µM (inactive) | 0.966 µM (active) | 1.81 µM (inactive) | 1.57 µM (inactive) | 1.94 µM (inactive) | 1.69 µM (inactive) | 0.891 µM (active) | 11.5 µM (inactive) | 1.62 µM (inactive) | 12 µM (inactive) | 1.69 µM (inactive) | 1.81 µM (inactive) | 1.94 µM (inactive)
